Test results as given in patent publication US20230321135A1, “TARGETING OF LACTATE DEHYDROGENASE C, METHODS OF PREPARING SAME, AND METHODS OF USING SAME IN COMBINATION WITH ANTI-CANCER TREATMENTS” (QATAR FOUNDATION FOR EDUCATION, SCIENCE AND COMMUNITY …, priority 2020, published 2023).

Assays:
LDHC = details: cited from earlier work
MDA-MB-468 cells [1] = assay: Western blot of cleaved caspase 3 after olaparib or cisplatin treatment; assay type: cell-based; details: MDA-MB-468, after treatment
Text: (§1) FIG. 6A: Annexin V/PI flow cytometric quantification of apoptosis after 72 hrs of treatment with olaparib or cisplatin. FIG. 6B depicts a western blot of cleaved caspase 3 protein expression with β-actin as loading control. Numbers under each lane represent mean densitometry values (arbitrary units) for cleaved caspase 3 signal (high exposure blot) from three independent experiments normalized to β-actin. FIG. 6C: Representative immunofluorescence microscopy images of phospho-γ-H2AX (red) and DAPI-stained nuclei (100× magnification). Yellow arrows indicate early apoptotic cells and white arrows indicate late apoptotic cells. […] All statistical analysis comparing shCTRL vs shLDHC performed using Student's t-test.
(§2) DNA damage repair inhibitors and DNA damage inducing agents, including the Poly ADP-ribose polymerase (PARP)-inhibitor olaparib and cisplatin, are widely used anti-cancer drugs with particular benefit to patients with defects in DDR pathways such as BRCA1/2-positive or ‘BRCAness’ basal breast cancer patients.

[2] = test system: shLDHC breast cancer cells (MDA-MB-468, BT-549, MDA-MB-231, HCC-1500); assay: Clonogenic assay at 14 days of culture post-treatment (72 h) with olaparib or cisplatin; assay type: cell-based; details: cell-line dependent
[3] = test system: shLDHC breast cancer cells (MDA-MB-468, BT-549, HCC-1500); assay: Annexin V/PI apoptosis after 72 hrs of treatment with olaparib or cisplatin; assay type: cell-based
Text: as §1
Supplemental FIG. 5A depicts a representative Annexin V/PI flow cytometry plots of MDA-MB-468 cells after 72 hrs of treatment with olaparib or cisplatin. Supplemental FIG. 5B depicts Annexin V/PI flow cytometric quantification of BT-549 cells after 72 hrs of treatment with olaparib or cisplatin. Supplemental FIG. 5C: Annexin V/PI flow cytometric quantification of HCC-1500 cells after 72 hrs of treatment with olaparib or cisplatin. […] Statistical analysis comparing shCTRL vs shLDHC performed using Student's t-test. […]

MDA-MB-468 cells [4] = assay: Phospho-γ-H2AX immunofluorescence after olaparib or cisplatin treatment; assay type: cell-based; details: similar levels in shCTRL and shLDHC treated cells
Text: as §1, §2

HCC-1500 cells = assay: Sensitivity to olaparib or cisplatin (72 h treatment; Annexin V/PI, clonogenic assay); assay type: cell-based; details: 14 days of culture post-treatment (72 h)

Compound	affinity for LDHC (LDHC)	selectivity towards LDHC (LDHC; vs other lactate dehydrogenase enzymes (LDHA, LDHB))	expression of cleaved caspase 3 in shLDHC cells (MDA-MB-468 cells [1])	colony formation ability of shLDHC cells further compromised, compared to shCTRL treated cells [2]	apoptosis in giant shLDHC cells compared to shCTRL cells [3]	DNA damage after treatment (MDA-MB-468 cells [4])	clonogenic ability of shCTRL and shLDHC cells (HCC-1500 cells)
CCNC(=O)C(=O)O [N-Ethyl oxamate]	high affinity	–	–	–	–	–	–
CCCNC(=O)C(=O)O [N-propyl oxamate]	–	high degree of selectivity	–	–	–	–	–
N.N.[Cl][Pt][Cl] [cisplatin]	–	–	augmented	greater than 4 fold	further induced	significant increase	completely abolished
O=C(c1cc(Cc2n[nH]c(=O)c3ccccc23)ccc1F)N1CCN(C(=O)C2CC2)CC1 [olaparib]	–	–	augmented	about 2 fold	further induced	significant increase	–
